Experimental data published in ChEMBL document CHEMBL1671823, “Novel Cyclic Phosphinic Acids as GABAC ρ Receptor Antagonists: Design, Synthesis, and Pharmacology” (ACS Med Chem Lett, 2011).
Blank lines part the entries; values can stand above or below the compound they belong to. Active and inactive are the calls of the source. No cut-off for these calls is given here.

What was measured:
[1] = biological target: Gamma-aminobutyric acid receptor subunit rho-2 (Homo sapiens, UniProt P28476); experiment: Antagonist activity at human recombinant GABAc rho-2 receptor expressed in Xenopus laevis oocytes assessed as inhibition of GABA-induced current by two electrode voltage clamp technique; assay type: functional, cell-based, Oocyte
[2] = biological target: T1, Gamma-aminobutyric acid receptor subunit rho-1 (Homo sapiens, UniProt P24046); experiment: Antagonist activity at human recombinant GABAc rho-1 receptor expressed in Xenopus laevis oocytes assessed as inhibition of GABA-induced current by two electrode voltage clamp technique; assay type: functional, cell-based, Oocyte; details: for Kb: Oocyte
[3] = biological target: T2, GABA-B receptor (Homo sapiens) (UniProt Q9UBS5+O75899); experiment: […] activity at human recombinant GABAb 1b/2 receptor expressed in Xenopus laevis oocytes co-expressing GIRK1/4 assessed as inhibition of GABA-induced current at 600 uM by two electrode voltage clamp technique; assay type: functional, cell-based; details: Oocyte
[4] = biological target: T2, GABA-B receptor (Homo sapiens); experiment: […] activity at human recombinant GABAb 1b/2 receptor expressed in Xenopus laevis oocytes co-expressing GIRK1/4 assessed as inhibition of GABA-induced current by two electrode voltage clamp technique; assay type: functional, cell-based; details: Oocyte
[5] = biological target: T2, GABA-B receptor (Homo sapiens); experiment: […] activity at human recombinant GABAb 1b/2 receptor expressed in Xenopus laevis oocytes co-expressing GIRK1/4 assessed as inhibition of GABA-induced current at 10 uM by two electrode voltage clamp technique; assay type: functional, cell-based; details: Oocyte
[6] = biological target: T3, GABA-A receptor; alpha-1/beta-2/gamma-2 (Homo sapiens) (UniProt P14867+P47870+P18507); experiment: Antagonist activity at human recombinant GABAA alpha1beta2gamma2L receptor expressed in Xenopus laevis oocytes assessed as inhibition of GABA-induced current at 600 uM by two electrode voltage clamp technique; assay type: functional, cell-based; details: Oocyte
[7] = biological target: T1, Gamma-aminobutyric acid receptor subunit rho-1; experiment: Antagonist activity at human recombinant GABAc rho-1 receptor expressed in Xenopus laevis oocytes assessed as inhibition of GABA-induced current at 600 uM by two electrode voltage clamp technique; assay type: functional, cell-based; details: Oocyte
[8] = biological target: T2, GABA-B receptor (Homo sapiens); experiment: Antagonist activity at human recombinant GABAb 1b/2 receptor expressed in Xenopus laevis oocytes co-expressing GIRK1/4 assessed as inhibition of GABA-induced current at 300 uM by two electrode voltage clamp technique; assay type: functional, cell-based; details: Oocyte
[9] = biological target: T3, GABA-A receptor; alpha-1/beta-2/gamma-2 (Homo sapiens); experiment: Antagonist activity at human recombinant GABAA alpha1beta2gamma2L receptor expressed in Xenopus laevis oocytes assessed as inhibition of GABA-induced current at 300 uM by two electrode voltage clamp technique; assay type: functional, cell-based; details: Oocyte
[10] = biological target: GABA-B receptor (Homo sapiens, UniProt O75899+Q9UBS5); experiment: Antagonist activity at human recombinant GABAb 1b/2 receptor expressed in Xenopus laevis oocytes co-expressing GIRK1/4 assessed as inhibition of GABA-induced current by two electrode voltage clamp technique; assay type: functional, cell-based, Oocyte
[11] = biological target: T1, Gamma-aminobutyric acid receptor subunit rho-1; experiment: Antagonist activity at human recombinant GABAc rho-1 receptor expressed in Xenopus laevis oocytes assessed as inhibition of GABA-induced current at 100 uM by two electrode voltage clamp technique; assay type: functional, cell-based; details: Oocyte
[12] = biological target: T3, GABA-A receptor; alpha-1/beta-2/gamma-2 (Homo sapiens); experiment: Antagonist activity at human recombinant GABAA alpha1beta2gamma2L receptor expressed in Xenopus laevis oocytes assessed as inhibition of GABA-induced current at 100 uM by two electrode voltage clamp technique; assay type: functional, cell-based; details: Oocyte

Chain of Gamma-aminobutyric acid receptor subunit rho-2 (P28476 whole entry): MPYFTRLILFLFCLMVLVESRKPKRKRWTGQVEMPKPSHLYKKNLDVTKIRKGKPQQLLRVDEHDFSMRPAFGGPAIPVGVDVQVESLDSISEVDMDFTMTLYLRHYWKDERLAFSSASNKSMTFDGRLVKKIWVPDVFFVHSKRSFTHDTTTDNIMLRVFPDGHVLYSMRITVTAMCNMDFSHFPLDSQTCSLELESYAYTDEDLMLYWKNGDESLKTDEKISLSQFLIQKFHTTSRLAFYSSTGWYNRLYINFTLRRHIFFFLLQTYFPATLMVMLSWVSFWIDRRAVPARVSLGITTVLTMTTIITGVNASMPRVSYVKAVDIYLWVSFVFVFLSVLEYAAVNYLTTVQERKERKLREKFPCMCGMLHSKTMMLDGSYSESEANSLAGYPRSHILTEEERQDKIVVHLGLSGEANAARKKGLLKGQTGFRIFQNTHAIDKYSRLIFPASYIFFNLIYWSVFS
T1 sequence (P24046 whole entry): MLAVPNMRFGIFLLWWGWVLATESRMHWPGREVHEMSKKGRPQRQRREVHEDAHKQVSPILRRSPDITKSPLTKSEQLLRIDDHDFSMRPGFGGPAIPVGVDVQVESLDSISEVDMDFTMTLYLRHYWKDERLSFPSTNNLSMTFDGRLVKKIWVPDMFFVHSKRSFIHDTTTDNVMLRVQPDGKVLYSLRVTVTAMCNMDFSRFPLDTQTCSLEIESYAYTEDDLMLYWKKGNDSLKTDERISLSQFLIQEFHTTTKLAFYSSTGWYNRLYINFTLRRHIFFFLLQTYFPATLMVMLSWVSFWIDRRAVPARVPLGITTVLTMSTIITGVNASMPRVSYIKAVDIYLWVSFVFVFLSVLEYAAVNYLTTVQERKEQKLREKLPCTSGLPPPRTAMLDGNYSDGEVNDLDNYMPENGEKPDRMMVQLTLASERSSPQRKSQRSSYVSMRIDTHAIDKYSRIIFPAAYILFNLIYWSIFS
Chain of GABA-B receptor (Q9UBS5 whole entry): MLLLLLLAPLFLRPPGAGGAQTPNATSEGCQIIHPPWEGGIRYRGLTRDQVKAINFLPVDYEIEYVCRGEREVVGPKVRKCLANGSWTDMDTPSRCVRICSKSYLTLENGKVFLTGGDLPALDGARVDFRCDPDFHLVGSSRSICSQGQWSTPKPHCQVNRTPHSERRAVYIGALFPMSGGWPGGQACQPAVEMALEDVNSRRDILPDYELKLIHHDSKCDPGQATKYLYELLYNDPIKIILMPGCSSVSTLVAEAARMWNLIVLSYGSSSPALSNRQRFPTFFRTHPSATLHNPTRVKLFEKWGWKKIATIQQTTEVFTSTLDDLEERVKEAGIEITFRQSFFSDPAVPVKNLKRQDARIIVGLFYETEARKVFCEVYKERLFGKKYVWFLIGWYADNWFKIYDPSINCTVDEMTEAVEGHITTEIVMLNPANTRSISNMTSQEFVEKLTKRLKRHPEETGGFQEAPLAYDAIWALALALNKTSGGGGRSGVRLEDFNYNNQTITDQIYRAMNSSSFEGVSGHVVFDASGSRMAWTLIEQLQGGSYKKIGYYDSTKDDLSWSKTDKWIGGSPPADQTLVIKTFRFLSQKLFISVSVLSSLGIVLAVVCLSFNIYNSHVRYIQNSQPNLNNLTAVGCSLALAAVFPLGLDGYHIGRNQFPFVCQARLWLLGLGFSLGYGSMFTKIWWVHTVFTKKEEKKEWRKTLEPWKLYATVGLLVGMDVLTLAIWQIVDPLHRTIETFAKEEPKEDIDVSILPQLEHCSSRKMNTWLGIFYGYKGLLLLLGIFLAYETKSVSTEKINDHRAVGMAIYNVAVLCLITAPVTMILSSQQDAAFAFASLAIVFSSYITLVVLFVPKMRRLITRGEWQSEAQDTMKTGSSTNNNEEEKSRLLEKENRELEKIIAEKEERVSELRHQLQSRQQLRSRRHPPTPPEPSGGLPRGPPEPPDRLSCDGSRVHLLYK
Chain of GABA-B receptor (O75899 whole entry): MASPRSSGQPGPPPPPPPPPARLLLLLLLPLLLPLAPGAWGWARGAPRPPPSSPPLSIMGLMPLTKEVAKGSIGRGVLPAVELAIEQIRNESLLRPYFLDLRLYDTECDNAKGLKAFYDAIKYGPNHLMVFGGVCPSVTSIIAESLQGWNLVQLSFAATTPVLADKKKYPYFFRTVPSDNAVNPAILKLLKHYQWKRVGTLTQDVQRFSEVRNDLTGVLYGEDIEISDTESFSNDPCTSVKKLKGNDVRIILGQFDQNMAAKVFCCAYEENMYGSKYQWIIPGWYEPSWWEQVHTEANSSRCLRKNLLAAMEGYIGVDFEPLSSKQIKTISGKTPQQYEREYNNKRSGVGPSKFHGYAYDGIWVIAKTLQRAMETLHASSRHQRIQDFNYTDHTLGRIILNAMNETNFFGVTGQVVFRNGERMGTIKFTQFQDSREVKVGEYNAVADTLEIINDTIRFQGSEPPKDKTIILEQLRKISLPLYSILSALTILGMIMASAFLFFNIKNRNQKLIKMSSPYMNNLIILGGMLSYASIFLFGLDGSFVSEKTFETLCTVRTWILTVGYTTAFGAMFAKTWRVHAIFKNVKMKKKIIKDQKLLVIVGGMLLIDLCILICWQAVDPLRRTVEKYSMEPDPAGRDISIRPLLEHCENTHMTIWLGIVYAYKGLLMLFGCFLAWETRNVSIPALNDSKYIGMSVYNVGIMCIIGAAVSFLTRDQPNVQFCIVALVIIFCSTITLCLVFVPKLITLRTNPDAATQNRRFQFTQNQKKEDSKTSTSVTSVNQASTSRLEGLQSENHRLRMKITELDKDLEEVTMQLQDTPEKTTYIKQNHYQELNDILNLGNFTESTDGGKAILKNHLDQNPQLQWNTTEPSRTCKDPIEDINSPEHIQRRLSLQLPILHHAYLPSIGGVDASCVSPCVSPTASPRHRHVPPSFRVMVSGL

Structure (SMILES): NCC1CCP(=O)(O)C1 (stereo not drawn)
IC50 [1]: 57.1 µM
IC50 [2]: 19.9 µM
inhibition [3]: 45.2%
inhibition [4]: Dose-dependent effect
inhibition [5]: inactive
inhibition [6]: inactive

inhibition [6]: inactive
inhibition [7]: inactive
Structure (SMILES): NC1CCP(=O)(O)C1 (stereo not drawn)

Structure (SMILES): CCCCP(=O)(O)C1=CC[C@H](N)C1
Kb [2]: 2.1 µM
inhibition [8]: 22.5%
inhibition [9]: 24.2%

Structure (SMILES): CP(=O)(O)C1=CCNCC1
IC50 [1]: 22.1 µM
Kb ([1]; Oocyte): 14.9 µM
IC50 [2]: 2.22 µM
EC50 [10]: 500 µM

Structure (SMILES): N=C(N)NC1CCP(=O)(O)C1 (stereo not drawn)
IC50 [1]: 51.3 µM
IC50 [2]: 29.7 µM
Kb [2]: 10 µM
inhibition [6]: 29.2%

Structure (SMILES): O=P1(O)CCC(CO)C1 (stereo not drawn)
inhibition [11]: inactive
inhibition [12]: inactive

Structure (SMILES): O=C(O)C1CCP(=O)(O)C1 (stereo not drawn)
inhibition [11]: inactive
inhibition [12]: inactive
